Reference: paper PMC11375794, “Discovery of new Hsp90–Cdc37 protein–protein interaction inhibitors: in silico screening and optimization of anticancer activity” (RSC Advances, 2024)

How the values were obtained:
Format in all cases: cell-based
[1] = system: MCF-7 breast cancer cell line; assay: MTS cell viability (antiproliferative) assay in MCF-7; details: MTS assay, 72 hours, mean ± SD; for IC50: Homo sapiens, MCF7, 72 h
Protocol: (§1) Hormone-positive breast cancer cell line MCF-7 (ATCC-HTB-22; ATCC) was grown in Dulbecco's Modified Eagle's Medium (DMEM), while Ewing sarcoma cell line SK-N-MC (a kind gift from Beat Schäfer) and THP-1 (ATCC-TIB-202; ATCC) cells were grown in Roswell Park Memorial Institute (RPMI) 1640. The medium was supplemented with 10% heat-inactivated fetal bovine serum (Gibco, Thermo Fisher Scientific, Waltham, MA, USA), 100 U per mL penicillin, 100 μg per mL streptomycin, and 2 mM L-glutamine (all from Sigma-Aldrich, St. Louis, MO, USA). All cell lines were incubated at 37 °C in a 5% CO2 atmosphere.
(§2) The antiproliferative activity of the compounds was evaluated against MCF-7 (ATCC-HTB-22; ATCC), SK-N-MC (a kind gift from Beat Schäfer) and THP-1 (ATCC-TIB-202; ATCC) cancer cell lines using the MTS assay (Promega, Madison, WI, USA). Cells were seeded in 96-well plates at a density of 2 × 10^4 cells per mL in 100 μL of growth medium for THP-1 and were treated with compounds and controls directly, while 3 × 10^3 cells per mL for MCF-7 and SK-N-MC were seeded in 100 μL of growth medium and allowed to adhere overnight following the treatment. In all cases the cells were treated with respective newly prepared compounds, positive controls (17-DMAG for MCF-7 and SK-N-MC; PU-H71 for THP-1) and a vehicle control (0.5% DMSO). The incubation time after treatment was 72 hours, then CellTiter96® Aqueous One Solution Reagent (Promega, Madison, WI, USA) was added to each well. Following a 3 hours incubation, absorbance was measured at 492 nm using BioTek's Synergy™ 4 Hybrid Microplate Reader (Winooski, VT, USA). The measurements were performed in two biological repetitions and each time the experiment was performed in a triplicate. The IC50 values, representing the concentration of inhibitor required for half-maximal inhibition, are the average of three independent experiments and were calculated using GraphPad Prism 9.5.0 software (San Diego, CA, USA).

[2] = system: Ewing sarcoma cell line SK-N-MC; assay: MTS cell viability (antiproliferative) assay in SK-N-MC; details: 72 hours, mean ± SD; for IC50: Homo sapiens, SK-N-MC
Protocol: as §1, §2

leukemia cell line THP-1 = assay: MTS cell viability (antiproliferative) assay in THP-1; details: Homo sapiens, THP-1, 72 hours, mean ± SD
Protocol: as §1, §2

| IC50 [1] [µM] | SMILES | further results |
| --- | --- | --- |
| 17.1 ± 1.4 | CN(Cc1ccccc1)C(=O)c1csc(Nc2cc(N3CCNCC3)ncn2)n1 [Compound 8a, N-Benzyl-N-methyl-2-((6-(piperazin-1-yl)pyrimidin-4-yl)amino)thiazole-4-carboxamide] |  |
| 27.3 ± 2 | CN(CCc1ccccc1)C(=O)c1csc(Nc2cc(N3CCNCC3)ncn2)n1 [Compound 8b, N-Methyl-N-phenethyl-2-((6-(piperazin-1-yl)pyrimidin-4-yl)amino)thiazole-4-carboxamide] |  |
| 20.6 ± 3 | O=C(NCCc1ccccc1)c1cccc(Nc2cc(N3CCCC3)ncn2)c1 [Compound 11a, N-Phenethyl-3-((6-(pyrrolidin-1-yl)pyrimidin-4-yl)amino)benzamide] |  |
| 14.6 ± 4.5 | O=C(NCCOc1ccccc1)c1cccc(Nc2cc(N3CCCC3)ncn2)c1 [Compound 11b, N-(2-Phenoxyethyl)-3-((6-(pyrrolidin-1-yl)pyrimidin-4-yl)amino)benzamide] | IC50 [2]: 26.9 ± 1 µM; IC50 (leukemia cell line THP-1): > 50 µM |
| 36.7 ± 6.1 | CN(Cc1ccccc1)C(=O)c1cccc(Nc2cc(N3CCCC3)ncn2)c1 [Compound 11c, N-Benzyl-N-methyl-3-((6-(pyrrolidin-1-yl)pyrimidin-4-yl)amino)benzamide] |  |
| 29.1 ± 5 | CN(CCc1ccccc1)C(=O)c1cccc(Nc2cc(N3CCCC3)ncn2)c1 [Compound 11d, N-Methyl-N-phenethyl-3-((6-(pyrrolidin-1-yl)pyrimidin-4-yl)amino)benzamide] |  |
| 34.1 ± 2.9 | CN(CCOc1ccccc1)C(=O)c1cccc(Nc2cc(N3CCCC3)ncn2)c1 [Compound 11e, N-Methyl-N-(2-phenoxyethyl)-3-((6-(pyrrolidin-1-yl)pyrimidin-4-yl)amino)benzamide] |  |
| > 50 | O=C(NCCc1ccccc1)c1ccc(Nc2cc(N3CCCC3)ncn2)cc1 [Compound 11f, N-Phenethyl-4-((6-(pyrrolidin-1-yl)pyrimidin-4-yl)amino)benzamide] |  |
| > 50 | O=C(NCCOc1ccccc1)c1ccc(Nc2cc(N3CCCC3)ncn2)cc1 [Compound 11g, N-(2-Phenoxyethyl)-4-((6-(pyrrolidin-1-yl)pyrimidin-4-yl)amino)benzamide] | SK-N-MC IC50 [2]: inactive; IC50 [2]: > 50 µM; IC50 (leukemia cell line THP-1): > 50 µM |
| 18.3 ± 7 | CN(Cc1ccccc1)C(=O)c1ccc(Nc2cc(N3CCCC3)ncn2)cc1 [Compound 11h, N-Benzyl-N-methyl-4-((6-(pyrrolidin-1-yl)pyrimidin-4-yl)amino)benzamide] |  |
| 18 ± 1.5 | CN(CCc1ccccc1)C(=O)c1ccc(Nc2cc(N3CCCC3)ncn2)cc1 [Compound 11i, N-Methyl-N-phenethyl-4-((6-(pyrrolidin-1-yl)pyrimidin-4-yl)amino)benzamide] |  |
| > 50 | CN(CCOc1ccccc1)C(=O)c1ccc(Nc2cc(N3CCCC3)ncn2)cc1 [Compound 11j, N-Methyl-N-(2-phenoxyethyl)-4-((6-(pyrrolidin-1-yl)pyrimidin-4-yl)amino)benzamide] |  |
| 31.9 ± 3.2 | O=C(NCCc1ccccc1)c1cccc(Nc2cc(N3CCNCC3)ncn2)c1 [Compound 13a, N-Phenethyl-3-((6-(piperazin-1-yl)pyrimidin-4-yl)amino)benzamide] |  |
| 22.5 ± 3.3 | O=C(NCCOc1ccccc1)c1cccc(Nc2cc(N3CCNCC3)ncn2)c1 [Compound 13b, N-(2-Phenoxyethyl)-3-((6-(piperazin-1-yl)pyrimidin-4-yl)amino)benzamide] | IC50 [2]: 22.2 ± 0.2 µM; IC50 (leukemia cell line THP-1): > 50 µM |
| 31.9 ± 2.1 | CN(Cc1ccccc1)C(=O)c1cccc(Nc2cc(N3CCNCC3)ncn2)c1 [Compound 13c, N-Benzyl-N-methyl-3-((6-(piperazin-1-yl)pyrimidin-4-yl)amino)benzamide] |  |
| > 50 | CN(CCc1ccccc1)C(=O)c1cccc(Nc2cc(N3CCNCC3)ncn2)c1 [Compound 13d, N-Methyl-N-phenethyl-3-((6-(piperazin-1-yl)pyrimidin-4-yl)amino)benzamide] |  |
| > 50 | CN(CCOc1ccccc1)C(=O)c1cccc(Nc2cc(N3CCNCC3)ncn2)c1 [Compound 13e, N-Methyl-N-(2-phenoxyethyl)-3-((6-(piperazin-1-yl)pyrimidin-4-yl)amino)benzamide] |  |
| 17.9 ± 0.5 | O=C(NCCc1ccccc1)c1ccc(Nc2cc(N3CCNCC3)ncn2)cc1 [Compound 13f, N-Phenethyl-4-((6-(piperazin-1-yl)pyrimidin-4-yl)amino)benzamide] |  |
| 14.5 ± 4.7 | CN(Cc1ccccc1)C(=O)c1ccc(Nc2cc(N3CCNCC3)ncn2)cc1 [Compound 13h, N-Benzyl-N-methyl-4-((6-(piperazin-1-yl)pyrimidin-4-yl)amino)benzamide] |  |
| 38.3 ± 4.9 | CN(CCc1ccccc1)C(=O)c1ccc(Nc2cc(N3CCNCC3)ncn2)cc1 [Compound 13i, N-Methyl-N-phenethyl-4-((6-(piperazin-1-yl)pyrimidin-4-yl)amino)benzamide] |  |
| 20.8 ± 2.7 | CN(CCOc1ccccc1)C(=O)c1ccc(Nc2cc(N3CCNCC3)ncn2)cc1 [Compound 13j, N-Methyl-N-(2-phenoxyethyl)-4-((6-(piperazin-1-yl)pyrimidin-4-yl)amino)benzamide] |  |

Further lines, the molecule ahead of its results:

| SMILES | IC50 [1] [µM] | further results |
| --- | --- | --- |
| COc1ccc(OCCN(C)C(=O)c2csc(Nc3cc(C4CCCN(CC#N)C4)nc(C)n3)n2)cc1 (centres unmarked) [Compound 2] | 47.4 ± 0.9 |  |
| COc1ccccc1OCCN(C)C(=O)c1csc(Nc2cc(C3CCCN(CC#N)C3)nc(C)n2)n1 (centres unmarked) [Compound 3] | 34.9 ± 2.7 |  |
| CN(Cc1ccccc1)C(=O)c1csc(Nc2cc(N3CCCC3)ncn2)n1 [Compound 6a, N-Benzyl-N-methyl-2-((6-(pyrrolidin-1-yl)pyrimidin-4-yl)amino)thiazole-4-carboxamide] | 20.8 ± 2.2 |  |
| CN(CCc1ccccc1)C(=O)c1csc(Nc2cc(N3CCCC3)ncn2)n1 [Compound 6b, N-Methyl-N-phenethyl-2-((6-(pyrrolidin-1-yl)pyrimidin-4-yl)amino)thiazole-4-carboxamide] | 15.2 ± 0.7 |  |
| CN(CCOc1ccccc1)C(=O)c1csc(Nc2cc(N3CCCC3)ncn2)n1 [Compound 6c, N-Methyl-N-(2-phenoxyethyl)-2-((6-(pyrrolidin-1-yl)pyrimidin-4-yl)amino)thiazole-4-carboxamide] | 28.1 ± 1.4 | IC50 [2]: 26.2 ± 0.4 µM; IC50 (leukemia cell line THP-1): > 50 µM |
| CN(CCc1ccccc1)C(=O)c1cccc(Nc2cc(N3CCCCC3)ncn2)c1 [Compound 14, N-Methyl-N-phenethyl-3-((6-(piperidin-1-yl)pyrimidin-4-yl)amino)benzamide] | > 50 |  |
| CN(CCc1ccccc1)C(=O)c1cccc(Nc2cc(N3CCC(N)CC3)ncn2)c1 [Compound 18, 3-((6-(4-Aminopiperidin-1-yl)pyrimidin-4-yl)amino)-N-methyl-N-phenethylbenzamide] | > 50 | MCF-7 IC50 [1]: not active |
| O=C(NCCOc1ccccc1)c1ccc(Nc2cc(N3CCCCC3)ncn2)cc1 [Compound 19, N-(2-Phenoxyethyl)-4-((6-(piperidin-1-yl)pyrimidin-4-yl)amino)benzamide] | > 50 |  |
| O=C(NCCOc1ccccc1)c1ccc(Nc2cc(N3CCOCC3)ncn2)cc1 [Compound 20, 4-((6-Morpholinopyrimidin-4-yl)amino)-N-(2-phenoxyethyl)benzamide] | > 50 |  |
| O=C(NCCOc1ccccc1)c1ccc(Nc2cc(N3CCC(O)CC3)ncn2)cc1 [Compound 21, 4-((6-(4-Hydroxypiperidin-1-yl)pyrimidin-4-yl)amino)-N-(2-phenoxyethyl)benzamide] | > 50 |  |
| NC1CCN(c2cc(Nc3ccc(C(=O)NCCOc4ccccc4)cc3)ncn2)CC1 [Compound 23, 4-((6-(4-Aminopiperidin-1-yl)pyrimidin-4-yl)amino)-N-(2-phenoxyethyl)benzamide] | > 50 |  |
| N#CCN1CCN(c2cc(Nc3ccc(C(=O)NCCOc4ccccc4)cc3)ncn2)CC1 [Compound 24, 4-((6-(4-(Cyanomethyl)piperazin-1-yl)pyrimidin-4-yl)amino)-N-(2-phenoxyethyl)benzamide] | > 50 | MCF-7 IC50 [1]: loss of activity |
